The source of these data is patent US4755522A, “Derivatives of N-[3-(2,4,6-trimethoxybenzoyl)propyl]piperidine, and their use in therapeutics” (priority 1986, dated 1988).

Where a name gives a salt, the structure may show the parent alone. Read-outs that look alike come from different tables or passages of the source.

In test [1] the test system is amphetaminic stereotypies. As to the kind of experiment: Amphetaminic stereotypies in the rat. In kind it is in vivo. As to the method: (§1) The compound of example 2 in solution in distilled water (pH 5.5 to 6.0) was administered by intraperitoneal route at a rate of 20 ml/kg in mice (male, NMRI, C.E.R. January) and of 5 ml/kg to rats (male, CD1, Sprague Dawley, Charles River).

In another test the test system is intergroup aggressivity. The experiment in a line: Intergroup aggressivity. The following applies: in vivo. The method, then:
as §1

The next test deals with reserpinic hypothermia. The experiment in a line: Reserpinic hypothermia. The following applies: in vivo. The method, then:
as §1

In test [2] the test system is arrhythmias caused by I.V. injection of adrenaline. As to the kind of experiment: Arrhythmias caused by I.V. adrenaline in dogs with coronary artery previously ligatured. Format: in vivo, dog.
For another test, the system named is man. The experiment in a line: Anti-depressant effect in man. Format: in vivo.
Another test relates to cardio-vascular system. The experiment in a line: Action on the cardio-vascular system in the anaesthetized dog. In kind it is in vivo. The settings on record: for minimal effective dose: Canis lupus familiaris, read-out: dose from which heart rate is significantly reduced. As to the method:
(b) Action on the cardio-vascular system (in the dog).
(§2) 3 dogs (average weight, 12 kg) anaesthetized with nembutal, receive the compound by intra-duodenal route at successive doses of 0.1-0.5-2.5-10 and 20 mg/kg.
The arterial pressure, the cardiac rate, the femoral arterial flow, the vertebral arterial flow, the rectal and skin temperatures are all measured. The coloration of the skin is observed.
(§3) 3 dogs (average weight, 14 kg) anaesthetized with nembutal, received the CRL 41,390 by intra-duodenal route, at successive doses of 0.1-0.5-1-2.5-5-10-20 mg/kg, then a supplementary dose of 10 mg/kg I.V.
The arterial pressure, the cardiac frequency, the femoral arterial flow, the vertebral arterial flow, the rectal and cutaneous temperatures, were measured. The coloration of the skin was observed.

The subject of the next test is isoprenaline. As to the kind of experiment: Effects of isoprenaline on arterial pressure and cardiac rate after the compound (dog). Format: in vivo. The following applies: after CRL 41,390. As to the method: as §3
The next test has as its system noradrenaline. The experiment in a line: Hypertension with noradrenaline after the compound (dog). The following applies: after CRL 41,390. Format: in vivo. The method, then: as §2, §3
Hypertension to noradrenaline is not modified: at 2 mcg/kg of noradrenaline, the systolic arterial pressure passes, after administration of the product, from 160 to 290 mmHg/161 to 289 mmHg in the control.

A further test deals with awakened dog. The experiment in a line: Anti-arrhythmic action on the awakened dog. Format: in vivo.
The next test relates to arterial pressure. The settings on record: prior-technique compound; cited from earlier work.
For test [3], the system named is arrhythmias with aconitine. As to the kind of experiment: Arrhythmias with aconitine in the guinea-pig. In kind it is in vivo. As to the method: The compound was administered by intravenous route at a dose of 10 mg/kg to a series of 10 albino guinea-pigs of 380 to 495 g, anaesthetized with urethane.
5 minutes later, they receive an I.V. perfusion of the product causing arrhythmia at a dosage of 0.09 mg/min. in a volume of 0.6 ml/min.
The compound is compared with quinidine at a dose of 5 mg/kg I>V> and with a series of controls.
Lots are drawn for the treatments.
B--Action on arrhythmias with aconitine.

[4] abbreviates: I.D. 0.1-20 mg/kg then 10 mg/kg I.V.

For `CCOC(=O)C1CCCN(CCCC(=O)c2c(OC)cc(OC)cc2OC)C1` (centres unmarked) [CRL 41,389, ethyl N-[3-(2,4,6-trimethoxybenzoyl)propyl] nipecotate hydrochloride], the amphetaminic stereotypies entry in [1] is listed as “moderate potentialization”. In addition, the intergroup aggressivity result in the test on intergroup aggressivity is recorded as “reduction of intergroup aggressivity”. Besides, the reserpinic hypothermia entry in the test with reserpinic hypothermia is given as “aggravation of reserpinic hypothermia”. In addition, the minimal effective dose in [2] (Canis lupus familiaris, iv, read-out: dose from which arrhythmias are reduced) was 2.5 mg/kg. Moreover, the “arrhythmias caused by I.V. adrenaline” value in test [2] (from 2.5 mg/kg) is recorded as “reduces arrhythmias”. Moreover, the effect in man entry with man is “anti-depressant stimulant”.
In the case of `COc1cc(OC)c(C(=O)CCCN2CCCC(C(=O)O)C2)c(OC)c1.Cl` (centres unmarked) [CRL 41,390, N-[3-(2,4,6-trimethoxybenzoyl)propyl]-3-piperidine carboxylic acid hydrochloride], the “effect on vertebral flow” value in the test on cardio-vascular system (20 mg/kg) is on record as “reduction in the vertebral flow”. Moreover, the “effect on femoral flow” value in the test with cardio-vascular system (20 mg/kg, particularly in a dog) was “slight increase in the femoral flow”. Further, in the test on cardio-vascular system (intraduodenal), the minimal effective dose came out at 20 mg/kg. In addition, the minimal effective dose with cardio-vascular system (iv, I.V.) turned out to be 2.5 mg/kg. Further, in the test on cardio-vascular system (setting [4]), the “effect on rectal and cutaneous temperatures” value was “moderately reduced”; the “effect on the arterial pressure” value is given as “no effect on the arterial pressure”. Further, in the test with cardio-vascular system (from I.V. 2.5 mg/kg and intraduodenal 20 mg/kg), the “effect on heart rate” value is listed as “significantly reduces the heart rate”. Further, in the test on isoprenaline (10 mcg/kg isoprenaline, control 35), the “diastolic arterial pressure after the product, with isoprenaline” value is 44 mmHg. Also, the “cardiac frequency after the product, with isoprenaline” value in the test with isoprenaline (10 mcg/kg isoprenaline, control 272) is 250 beats/min. Besides, in the test with isoprenaline, the “effects of isoprenaline on diastolic arterial pressure and cardiac frequency” value is “slightly reduced”. Further, in the test on isoprenaline (control 135), the “diastolic arterial pressure after the product, before isoprenaline” value is recorded as 131 mmHg. Also, the “cardiac frequency after the product, before isoprenaline” value with isoprenaline (control 185) is reported as 148 beats/min. In the test on noradrenaline (2 mcg/kg noradrenaline, control 289), the “systolic arterial pressure after the product, with noradrenaline” value stood at 290 mmHg. The hypertension to noradrenaline entry in the test on noradrenaline was “not modified”. In addition, the “systolic arterial pressure after the product, before noradrenaline” value in the test on noradrenaline (control 161) is on record as 160 mmHg. Besides, the anti-arrhythmic action result in the test with awakened dog was “no anti-arrhythmic action”.
`COc1cc(OC)c(C(=O)CCCN2CCCC(C)C2)c(OC)c1` (centres unmarked) [CRL 41,034, (2,4,6-trimethoxyphenyl)-[3-(3-methylpiperidino)propyl] ketone]: the “effect on the arterial pressure” value in the test with arterial pressure is reported as “hypotensive effect”.
In the case of `C=C[C@H]1C[N@@]2CC[C@H]1C[C@@H]2[C@@H](O)c1ccnc2ccc(OC)cc12` [quinidine, reference compound], in [3] (quinidine 5 mg/kg I.V.), the “appearance of ventricular tachycardia due to aconitine” value was “significantly retards only the appearance of ventricular tachycardia” and the “retardation of ventricular tachycardia (average)” value is “+30%”. For the same compound, in test [3] (quinidine 5 mg/kg I.V. vs compound 10 mg/kg I.V.), the “retardation compared with the compound according to the invention” value was “significantly less than that observed with the compound according to the invention”.
